Experimental data as given in PubChem BioAssay (NCI).
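Compound exposure: 48 hours, 5 concentrations, 96-well plates. GI50 marks 50% less growth. TGI denotes the concentration required for complete inhibition of growth.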

Legend:
Test in all cases: growth of human tumour cells (NCI), 48 h
M14 melanoma = tested on: M14 melanoma
UO-31 renal = tested on: UO-31 renal
MOLT-4 leukemia = tested on: MOLT-4 leukemia
SK-MEL-2 melanoma = tested on: SK-MEL-2 melanoma
A549 NSCLC = tested on: A549 NSCLC
SN12C renal = tested on: SN12C renal
SK-OV-3 ovarian = tested on: SK-OV-3 ovarian
SF-539 CNS = tested on: SF-539 CNS
MALME-3M melanoma = tested on: MALME-3M melanoma
HL-60(TB) leukemia = tested on: HL-60(TB) leukemia

Row | SMILES | TGI (M14 melanoma) | TGI (UO-31 renal) | TGI (MOLT-4 leukemia) | TGI (SK-MEL-2 melanoma) | TGI (A549 NSCLC) | TGI (SN12C renal) | TGI (SK-OV-3 ovarian) | TGI (SF-539 CNS) | TGI (MALME-3M melanoma) | GI50 (M14 melanoma) | GI50 (HL-60(TB) leukemia) | TGI (HL-60(TB) leukemia) | GI50 (UO-31 renal) | GI50 (MOLT-4 leukemia) | GI50 (SK-MEL-2 melanoma) | GI50 (A549 NSCLC) | GI50 (SN12C renal) | GI50 (SK-OV-3 ovarian) | GI50 (SF-539 CNS) | GI50 (MALME-3M melanoma)
1 | CC1=NN(C(=O)CC(=O)Nc2cccc(Cl)c2)C(=O)C1N=Nc1ccc(S(N)(=O)=O)cc1 (centres undefined) | > 100 µM | > 100 µM | > 100 µM | > 100 µM | > 100 µM | > 100 µM | > 100 µM | > 100 µM | > 100 µM |  |  |  |  |  |  |  |  |  |  | 
2 | COc1ccc(C2=CC(c3cc(OC)c(OC)c(OC)c3)n3ncnc3N2)cc1 (centres undefined) | > 100 µM | 66.4 µM | > 100 µM | 71.1 µM | 30.3 µM | > 100 µM | 27 µM |  |  | 33.3 nM | 25.2 nM | 0.0612 µM | 10 µM | 0.171 µM | 16.9 µM | 85.8 nM | 0.141 µM | 51.3 nM |  | 
3 | Cc1nnc2n1N=C(CC(=O)c1ccc(O)cc1O)CN2N | > 100 µM | > 100 µM |  | > 100 µM | > 100 µM | > 100 µM | > 100 µM | > 100 µM | > 100 µM |  |  | > 100 µM |  |  |  |  |  |  |  | 
4 | CCOC(=O)CCC1(C(=O)OC)CCCC1=O (centres undefined) |  | > 100 µM | > 100 µM | > 100 µM | > 100 µM |  | > 100 µM | > 100 µM | > 100 µM |  |  | > 100 µM |  |  |  |  |  |  |  | 
5 | O=c1oc(-c2ccc(O)c(O)c2)cc2cc(O)cc(O)c12 | 93.9 µM | > 100 µM | > 100 µM | > 100 µM | > 100 µM | > 100 µM | > 100 µM | 91.5 µM | > 100 µM | 33200 nM |  |  | 18.5 µM | 22.4 µM | 74.4 µM | 34100 nM | 43 µM | > 100000 nM | 26700 nM | 57.5 µM
6 | COc1ccc2cccc(C(=N)c3ccc(C)c4c3CCC4)c2c1 | 18.6 µM | 16.2 µM | 26.1 µM | 24.4 µM | 26.8 µM | 24.5 µM | 29.9 µM |  | 18.1 µM |  |  | 9.12 µM |  |  |  |  |  |  |  | 
7 | O=C1c2cccnc2C(=O)c2c1c(C(=O)OCCCN1CCOCC1)c1ccccn21 | 0.0699 µM |  | 12.5 µM | 0.0569 µM | 0.072 µM | 1.82 µM |  | 0.0372 µM | 1.71 µM | < 10 nM | 36.1 nM | 2.76 µM |  | 0.135 µM | 0.0205 µM | < 10 nM | < 0.01 µM |  | < 10 nM | 0.0125 µM
8 | COC(=O)/C(=N\NC(=O)c1ccccc1O)C(C#N)c1ccc(Cl)cc1 (centres undefined) | > 100 µM | 37.3 µM | > 100 µM | > 100 µM | > 100 µM | > 100 µM |  | > 100 µM | > 100 µM |  |  | > 100 µM |  |  |  |  |  |  |  | 
9 | CC(=O)NC1C(OCc2ccccc2)OC(COC(=O)CCCCCCCCCCNC(=O)c2cccc3c(=O)c4ccccc4[nH]c23)C(O)C1OC(C)C(=O)NC(C)C(=O)NC(CCC(N)=O)C(N)=O (centres undefined) | > 100 µM | > 100 µM | > 100 µM | > 100 µM | > 100 µM | > 100 µM | > 100 µM | > 100 µM |  |  |  | > 100 µM |  |  |  |  |  |  |  | 
10 | CC(C)(C)n1cc(-c2ccnc(NCCNS(=O)(=O)c3ccc(Br)cc3)c2)c(-c2cccc(O)c2)n1 | 3.4 µM | 4.47 µM |  | 3.99 µM | 6.5 µM | 3.2 µM | 6.1 µM | 3.11 µM | 3.34 µM | 1770 nM | 581 nM | 2.88 µM | 1.35 µM |  | 1.93 µM | 2190 nM | 1.72 µM | 2290 nM | 1540 nM | 1.67 µM
11 | O=C(Cc1nc2ccc(C(=O)c3ccccc3)cc2[nH]c1=O)C(=O)Nc1ccccc1[N+](=O)[O-] | > 100 µM | > 100 µM |  | > 100 µM | > 100 µM | > 100 µM | > 100 µM | > 100 µM | > 100 µM |  |  | > 100 µM |  |  |  |  |  |  |  | 
12 | O=C1C=C(Nc2cccc(Br)c2)c2ccccc2C1=O | 13.1 µM | 33.6 µM | 42.7 µM | 22 µM | 12.3 µM | 23.8 µM | 30 µM | 4.56 µM |  | 611 nM | 9560 nM | 34.5 µM | 1.81 µM | 18.4 µM | 0.785 µM | 1540 nM | 5.79 µM | 6420 nM | 1930 nM | 
13 | O=C(OCc1ccccc1CN1CCOCC1)c1ccc(Br)cc1 | > 100 µM | > 100 µM |  | > 100 µM | > 100 µM | > 100 µM | > 100 µM | > 100 µM | 60.4 µM |  |  |  |  |  |  |  |  |  |  | 
14 | CCCCCCCCCCCCCCCC[N+]1(CC)CCCC1 | 1.72 µM | 11.6 µM | 2.19 µM |  | 2.59 µM | 2.44 µM | 3.05 µM | 1.98 µM | 1.98 µM | 474 nM | 339 nM | 1.14 µM | 2.79 µM | 0.486 µM |  | 1070 nM | 1.1 µM | 1020 nM | 683 nM | 0.582 µM
15 | O=C1[C@H]2C(c3ccccc3)=NN(C(=O)c3ccccc3)[C@H]2C(=O)N1c1ccccc1 | > 100 µM | > 100 µM | > 100 µM | > 100 µM | > 100 µM | > 100 µM | > 100 µM | > 100 µM | > 100 µM |  |  |  |  |  |  |  |  |  |  | 
16 | CN1CCCC1c1cccnc1.O=C(O)c1ccccc1O.O=C([O-])c1ccccc1[OH2+].O=C([O-])c1ccccc1[OH2+].O=C([O-])c1ccccc1[OH2+].[Mn+2] (centres undefined) | > 100 µM | > 100 µM | > 100 µM | > 100 µM | > 100 µM | > 100 µM | > 100 µM |  | 52.2 µM | > 100000 nM | > 100000 nM | > 100 µM | > 100 µM | 19.9 µM | > 100 µM | > 100000 nM | > 100 µM | > 100000 nM |  | 17.8 µM
17 | CC[C@]12C=CCN3CC[C@]4(C(=C(C(=O)OC)C1)Nc1cc(O)ccc14)[C@@H]32 | 34.3 µM | 25.8 µM | 74.2 µM | 48.6 µM | 70.8 µM | 29.7 µM |  | 30.1 µM | 26.3 µM | 13900 nM | 25800 nM | 72.5 µM | 12.9 µM | 21.6 µM | 18.2 µM | 23300 nM | 15.4 µM |  | 15100 nM | 11.8 µM
